Tests used:
pancreatic β-cells = experiment: Binding of [125I]glibenclamide to intact β-cells and subcellular fractions, UV cross-linking, SDS-PAGE, autoradiography; parameters: species or system ob/ob mice
Source text: (§1) Ob/ob mice were obtained from a locally bread colony at the animal facility within the Karolinska Institute, Stockholm, Sweden. The ob/ob mice were starved overnight. The animals were decapitated, the pancreas was excised from the abdominal cavity and pancreatic β-cells were isolated after collagenase digestion as previously described (Lemmark, A, (1974) Diabetologica 10, 431-438; Nilsson, T. et al. (1987) Biochem. J. 248, 329-336). The cells were kept overnight in RPMI 1640 medium supplemented with 11 mM glucose, 10% FCS, 100 μg/ml streptomycin and 100 IU/ml penicillin at 37° C. in a humidified atmosphere of 5% CO2 in air.
Binding of [^125I]glibenclamide (Amersham, UK) was performed in intact β-cells and in subcellular fraction derived therefrom. Isolated pancreatic islets from ob/ob mice (250-300) were homogenized in 300 μl buffer containing (in mM): HEPES 20, MgCl2 1, EGTA 1, EDTA 1, PMSF 1, protease inhibitors (leupeptin, aprotinin, pepstatin, antipain) 0.5 μg/ml in Eppendorf tubes using a motor pestle homogenizer. The homogenized material was centrifuged (800×g for 10 min) and the resultant pellet was resuspended again in 200 μl of homogenization buffer and centrifuged as above. […] This material was further analyzed by SDS-PAGE separation and autoradiography (FIG. 1b). […]

β-tubulin = experiment: Confocal microscopy co-localization of BODIPY FL glibenclamide and anti β-tubulin antibody in β-cells; type: cell-based, ob/ob mice; conditions: primary cultures of β-cells, BODIPY FL glibenclamide staining
Method: Further analysis of sulfonylureas binding to β-tubulin was performed using confocal microscopy in primary cultures of β-cells obtained from ob/ob mice. Isolated β-cells in culture were incubated in the presence or absence of different agonists for 3 min at 23° C. The incubation time was terminated by fixation of the cells with 4% formaldehyde in PBS for 10 min at room temperature. After rinsing twice with PBS, cells were incubated in acetone at −20° C. for 5 min and then quenched with PBS containing 1% BSA for 30 min. BODIPY® FL glibenclamide was purchased from Molecular Probes, Inc., Catalog Number B-7439; http://www.probes.com). The green-fluorescent BODIPY® FL fluorophore has excitation/emission maxima ˜503/512 nm. Staining with BODIPY® FL glibenclamide, primary anti β-tubulin antibody (Amersham, UK) and secondary Texas Red®-conjugated antibody (Molecular Probes Inc.) was performed at room temperature for 1 h. After rinsing with PBS the coverslips were mounted (SlowFade light, Molecular Probes, Eugene, Oreg.) and examined using a confocal laser scanning microscope (Leica TCS NT, Leica Lasertechnik GmbH, Heidelberg, Germany). Excitation wavelengths 488 nm and 568 nm were used. The confocal microscope was equipped with an Ar/Kr laser, a double dicroic mirror for rhodamine/fluorescein and a 63× lens (Leica PL APO 63×/1.32×0.6 oil). […]

[1] = system: Tubulin from bovine brain; experiment: Tubulin polymerization in vitro (optical density at 340 nm); type: biochemical; conditions: 0.17 mM glibenclamide, 2.9 mg/ml tubulin, versus DMSO control
Method: Glibenclamide accelerates microtubule growth. (a): Experimental data showing the increase in optical density at 340 nm, resulting from tubulin polymerization in vitro, as a function of time. Microtubule growth was induced by increasing the temperature from 15° C. (at t=0) to 35° C. The concentration of bovine brain tubulin was 2.9 mg/ml and the buffer solution contain 80 mM Pipes, 1 mM MgCl2, 1 mM EGTA, 1 mM GTP, 2.1% DMSO and 10% glycerol at pH 6.9. The black symbols indicate the presence of 0.17 mM glibenclamide whereas the gray symbols represent the controls in its absence. The polymerization was followed simultaneously for one pair at the time, with each pair being a glibenclamide sample and a control, to ensure comparisons are made on identical protein samples. The data presented is representative of four experiments. (b): The rate of tubulin polymerization as measured by the change in OD with time (dOD/dt) as a function of time. The experimental conditions were the same as in (a). Black lines indicate the presence of glibenclamide and gray lines its absence. […]
Tubulin from bovine brain was purchased from Cytoskeleton Inc. in aliquots of 1 mg lyophilized protein. […] The experiment was then started by altering the multicell holder set temperature to 35° C. and the absorbance at 340 nm was measured as a function of time. […]

β-cells [2] = experiment: Dynamics of insulin release from column perifused β-cells; type: cell-based, ob/ob mice; conditions: for increase in insulin secretion: 1 μM glibenclamide in the presence of 5 μM nocodazole; for basal level of insulin secretion: 5 μM nocodazole (30 min) or 25 μM Taxol (15 min and throughout)
Method: (§2) Staining of microtubules with an antibody against tubulin in β-cells pretreated with vehicle, nocodazole or taxol (a). Data are representative of three determinations. Effect of nocodazole (b) and taxol (c) on the dynamics of insulin release from column perifused β-cells. Cells were incubated with 5 μM nocodazole for 30 min or 25 μM taxol for 15 min prior to starting perifusion of the cells. Taxol was present during the whole experiment. The control cells were incubated with their respective vehicle solutions. Protocols were initiated at the times indicated in the figure with either 1 μM glibenclamide or 15 mM glucose. The data represents the mean+SEM of four experiments.
as §1
The basal medium used for isolation and for conducting the experiments was a buffer containing 125 mM NaCl; 5.9 mM KCl; 1.3 mM CaCl2; 1.2 mM MgCl2; and 25 mM HEPES (pH 7.4). BSA was added to the medium at the concentration of 1 mg/ml. The dynamics of insulin release were studied by perifusing β-cell aggregates mixed with Bio-Gel P4 polyacrylamide beads (BioRad, Richmond, Calif.), in a 0.5 ml column at 37° C. (Kanatsuna, T. et al. (1981) Diabetes 30, 231-234). The flow rate was 0.2 ml/min. Two-min fractions were collected and insulin content was analyzed by radioimmunoassay.
(§3) Cells were incubated with 5 μM nocodazole for 30 min or 25 μM taxol for 15 min prior to starting perifusion of the cells. Taxol was present during the whole experiment. The control cells were incubated with their respective vehicle solutions. Protocols were initiated at the times indicated in FIG. 3 with either 1 μM glibenclamide or 15 mM glucose. The data represent the mean±SEM of four experiments.

β-cells [3] = experiment: Staining of microtubules with an antibody against tubulin in pretreated β-cells; type: cell-based, ob/ob mice; conditions: 5 μM nocodazole or 25 μM Taxol
Method: as §2, §3

[4] = system: isolated rat islets of Langerhans; conditions: cited from earlier work

SMILES | proteins associated with binding, cytosolic fraction (pancreatic β-cells) | co-localization with β-tubulin (β-tubulin) | rate of change in absorbance (rate of tubulin polymerization) ([1]; 15° C. to 35° C.) | extent of tubulin polymerization [1] | increase in insulin secretion (β-cells [2]; 3 mM glucose) [fold] | increase in insulin secretion (β-cells [2]; 15 mM glucose) | basal level of insulin secretion (β-cells [2]) | changes in microtubule organization (β-cells [3]) | effect on glucose-stimulated insulin secretion [4] | effect on increase in insulin secretion elicited by 1 μM glibenclamide (β-cells [2]; 25 μM Taxol, 3 mM and 15 mM glucose)
COc1ccc(Cl)cc1C(=O)NCCc1ccc(S(=O)(=O)NC(=O)NC2CCCCC2)cc1 [glibenclamide, 5-Chloro-N-[2-[4-[[[(cyclohexylamino)carbonyl]amino]sulfonyl]phenyl]ethyl]-2-methoxybenzamide] | associated with two proteins having a molecular mass of approximately 47 and 65 kDa | indicated an interaction between glibenclamide and β-tubulin | faster | not a strong influence | 5 | one-fold increase |  |  |  | 
COC(=O)Nc1nc2ccc(C(=O)c3cccs3)cc2[nH]1 [nocodazole] |  |  |  |  |  |  | did not affect | nor did they induce visible changes | inhibit | 
CC(=O)O[C@H]1C(=O)[C@@]2(C)[C@H]([C@H](OC(=O)c3ccccc3)[C@]3(O)C[C@H](OC(=O)[C@H](O)[C@@H](NC(=O)c4ccccc4)c4ccccc4)C(C)=C1C3(C)C)[C@]1(OC(C)=O)CO[C@@H]1C[C@@H]2O [Taxol] |  |  |  |  |  |  | did not affect | nor did they induce visible changes | inhibit | prevented the increase

From patent US6586188B1, “Method for identification of compounds that bind to β-tubulin and stimulate insulin secretion” (Biovitrum AB, priority 1999, dated 2003)
